Reference: patent publication US6303578A, “Mu-opiate receptor peptides” (Administrators of the Tulane Educational Fund, priority 1999, dated 2001)
Where “and” joins values, the source holds several entries; their conditions need not be identical. Equal values may be shown once. Read-outs that look alike come from different tables or passages of the source. Bridge positions count the residues as written; N and C are the ends. Square brackets hold non-standard residues; d marks the D form. Peptide text beside a SMILES is read from it. dOrn = NCCC[C@@H](N)C(=O)O

What was measured:
guinea pig ileum [1] = assay type: cell-based
Excerpt: […]. […] […]

mice [2] = test system: mice
mice [3] = conditions: it injection
guinea pig ileum [4] = conditions: for overall agonist character: conclusion of Example 7
κ receptors = κ receptors (Homo sapiens, UniProt P41145); conditions: cited from earlier work; for Ki: values obtained from (7) or (20), read-out: Receptor Binding Ki κ
mice [5] = conditions: from reference (24); cited from earlier work
μ receptors [6] = target: T1, μ receptors (Homo sapiens, UniProt P35372); experiment: Binding to μ opiate receptors by inhibition of [3H]-DAMGO
Protocol: (§1) The relative affinity and selectivity for the μ receptor over the δ and κ receptors of the synthesized peptides were tested and compared.

mice [7] = experiment: Analgesia in mice after IV injection; assay type: in vivo
δ receptors [8] = target: T2, δ receptors (Homo sapiens, UniProt P41143); experiment: Binding to δ opiate receptors by inhibition of 3H-pCl-DPDPE; conditions: FIG. 1 set of 20 pin-synthesized peptides
Protocol: as §1

μ receptors [9] = target: T1, μ receptors; conditions: values obtained from (7) or (20); read-out: Receptor Binding Ki μ; cited from earlier work
δ receptors [10] = target: T2, δ receptors; conditions: cited from earlier work
[11] = mean±SEM, read-out: IC50 inhibiting electrically-induced contractions of the guinea pig ileum
[12] = untreated guinea pig ileum, read-out: agonist activity IC50 in the untreated ileum
[13] = methods of Example 3, route not given

Chain of κ receptors (P41145 whole entry): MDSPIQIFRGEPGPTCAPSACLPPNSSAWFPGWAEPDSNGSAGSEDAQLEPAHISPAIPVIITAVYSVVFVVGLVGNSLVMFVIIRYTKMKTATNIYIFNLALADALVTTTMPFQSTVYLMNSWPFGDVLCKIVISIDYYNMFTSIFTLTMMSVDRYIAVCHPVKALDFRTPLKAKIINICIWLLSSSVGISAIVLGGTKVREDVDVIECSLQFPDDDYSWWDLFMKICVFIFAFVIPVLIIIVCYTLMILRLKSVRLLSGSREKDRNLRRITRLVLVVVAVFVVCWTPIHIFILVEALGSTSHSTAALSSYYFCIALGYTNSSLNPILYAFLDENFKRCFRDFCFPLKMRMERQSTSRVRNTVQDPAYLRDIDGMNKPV
T2 sequence (P41143 whole entry): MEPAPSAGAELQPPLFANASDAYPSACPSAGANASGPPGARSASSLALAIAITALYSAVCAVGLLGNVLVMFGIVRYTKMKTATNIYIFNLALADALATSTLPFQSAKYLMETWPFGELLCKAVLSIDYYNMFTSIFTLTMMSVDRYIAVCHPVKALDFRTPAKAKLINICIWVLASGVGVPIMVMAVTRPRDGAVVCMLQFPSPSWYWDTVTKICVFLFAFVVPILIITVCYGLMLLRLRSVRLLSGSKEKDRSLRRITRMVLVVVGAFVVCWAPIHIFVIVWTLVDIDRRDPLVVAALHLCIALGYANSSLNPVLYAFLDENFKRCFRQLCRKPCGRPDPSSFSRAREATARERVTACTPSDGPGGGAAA
T1 sequence (P35372 whole entry): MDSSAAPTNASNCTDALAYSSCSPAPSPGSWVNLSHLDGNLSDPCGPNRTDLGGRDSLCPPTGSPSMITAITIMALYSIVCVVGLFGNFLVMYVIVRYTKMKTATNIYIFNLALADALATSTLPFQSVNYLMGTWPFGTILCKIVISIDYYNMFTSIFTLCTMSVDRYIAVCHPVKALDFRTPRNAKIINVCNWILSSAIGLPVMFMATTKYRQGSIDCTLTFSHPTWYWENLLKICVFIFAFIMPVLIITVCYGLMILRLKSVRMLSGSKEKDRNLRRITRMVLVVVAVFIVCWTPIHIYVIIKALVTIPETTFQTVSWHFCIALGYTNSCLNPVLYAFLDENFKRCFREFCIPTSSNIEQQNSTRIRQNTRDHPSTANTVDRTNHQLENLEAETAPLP

## NC(=O)[C@H](Cc1ccccc1)NC(=O)[C@H](Cc1ccccc1)NC(=O)[C@@H]1CCCN1C(=O)[C@@H](N)Cc1ccc(O)cc1 [SEQ ID NO:2, H-Tyr-Pro-Phe-Phe-NH2]
Guinea pig ileum [1]; [11]
  IC50: 4 ± 0.4 nM
Mice [2]; mice, icv injection
  ED50 analgesia: 8.4 µg

## NC(=O)[C@H](Cc1ccccc1)NC(=O)[C@H](Cc1c[nH]c2ccccc12)NC(=O)[C@@H]1CCCN1C(=O)[C@@H](N)Cc1ccc(O)cc1 [SEQ ID NO:1, H-Tyr-Pro-Trp-Phe-NH2]
Guinea pig ileum [1]; [11]
  IC50: 3.6 ± 0.3 nM
Guinea pig ileum [1]; naloxone 0.5 μM and CTOP 0.5 μM, applied 1 min before or after, not by nor-binaltorphimine 20 nM
  effect of antagonists on the peptide's effect in guinea pig ileum: blocked and reversed
Mice [2]; mice, 10-20 μg of the peptide, 1 hr
  animals still analgesic 1 hr after injection: About half
Mice [2]; naloxone 1 mg/kg sc, β-funaltrexamine 40 mg/kg 24 h pretreatment
  effect of antagonists on analgesia induced by 10 μg of the peptide: reversed
Mice [3]
  ED50 analgesia: 0.8 µg

## N[C@@H](Cc1ccc(O)cc1)C(=O)N1CCC[C@H]1C(=O)N[C@@H](Cc1ccccc1)C(=O)N[C@@H](Cc1ccccc1)C(=O)O [SEQ ID NO:4, H-Tyr-Pro-Phe-Phe-OH]
Guinea pig ileum [1]; [12]
  IC50: 20000 nM
Guinea pig ileum [4]; B-CNA treated ileum
  activity after treatment with 20 nM beta-chlornaltrexamine: antagonist activity
Guinea pig ileum [4]
  overall agonist character: partial agonist activity

## CSCC[C@H](NC(=O)[C@H](Cc1ccccc1)NC(=O)CNC(=O)CNC(=O)[C@@H](N)Cc1ccc(O)cc1)C(=O)O [Met-Enkephalin]
κ receptors
  Ki: 4.44 µM
Mice [5]
  ED50 analgesia: 75 µg
  duration of analgesic effects: less than 10 min

## N[C@@H](Cc1ccc(O)cc1)C(=O)N1CCC[C@H]1C(=O)N[C@@H](Cc1c[nH]c2ccccc12)C(=O)N[C@@H](Cc1ccccc1)C(=O)O [SEQ ID NO:3, H-Tyr-Pro-Trp-Phe-OH]
Guinea pig ileum [1]; [12]
  IC50: 5000 nM
Guinea pig ileum [4]; B-CNA treated ileum
  activity after treatment with 20 nM beta-chlornaltrexamine: antagonist activity
Guinea pig ileum [4]
  overall agonist character: partial agonist activity
Guinea pig ileum [4]; peptide 20 μM 1 minute before 0.3 μM DAMGO, B-CNA treated ileum
  inhibition of contractions by DAMGO after pretreatment with the peptide: 25%

## C[C@@H](NC(=O)[C@@H](N)Cc1ccc(O)cc1)C(=O)NCC(=O)N(C)[C@@H](Cc1ccccc1)C(=O)NCCO [DAMGO, reference compound]
Guinea pig ileum [1]; [11]
  IC50: 6.8 ± 0.8 nM
Guinea pig ileum [4]; 0.3 μM DAMGO, ileum treated with 20 nM B-CNA
  inhibition of electrically-induced contractions: 40%

## N[C@@H](Cc1ccc(O)cc1)C(=O)N[C@@H]1CCCNC(=O)[C@H](Cc2ccccc2)NC(=O)[C@H](Cc2c[nH]c3ccccc23)NC1=O [SEQ ID NO:15, H-Tyr-c-[D-Orn-Trp-Phe]] (H-Y[dOrn]WF; lactam 2-C)
μ receptors [6]
  μ receptor affinity higher than the peptide of SEQ ID NO:1: about 4 fold

## N[C@@H](Cc1ccc(O)cc1)C(=O)N[C@@H]1CCCCNC(=O)[C@H](Cc2ccccc2)NC(=O)[C@H](Cc2c[nH]c3ccccc23)NC1=O [SEQ ID NO:13, H-Tyr-c-[D-Lys-Trp-Phe]] (H-Y[dK]WF; lactam 2-C)
μ receptors [6]
  μ receptor affinity higher than the peptide of SEQ ID NO:1: about 15 fold
Guinea pig ileum [1]
  IC50 in the guinea pig ileum assay (in words): subnanomolar
  potency in the guinea pig ileum assay greater than SEQ ID NO:1: about 4 fold
Mice [7]
  ED50 analgesia: 0.16 µmol/kg
Mice [2]; [13]
  analgesic potency IC50: 0.3 µg
  analgesic potency greater than SEQ ID NO:1: about 10 fold

## NC(=O)CNC(=O)[C@H](Cc1c[nH]c2ccccc12)NC(=O)[C@@H]1CCCN1C(=O)[C@@H](N)Cc1ccc(O)cc1 [Tyr-W-MIF-1, Tyr-Pro-Trp-Gly-NH2] (H-YPWG-NH2)
μ receptors [6]
  Ki: 85 nM
δ receptors [8]
  selectivity for μ over δ receptors (δ Ki/μ Ki): 240 fold
μ receptors [9]
  Ki: 70.9 nM and 70 nM
δ receptors [10]; background, reference (7)
  selectivity for μ over δ receptors: > 200 fold
δ receptors [10]; values obtained from (7) or (20), read-out: Receptor Binding Ki δ
  Ki: 15.5 µM
δ receptors [10]; values obtained from (7)
  Binding Selectivity δ/μ: 219
κ receptors; background, reference (7)
  selectivity for μ over κ receptors: > 300 fold
κ receptors
  Ki: 22.3 µM
κ receptors; values obtained from (7)
  Binding Selectivity κ/μ: 314

## CN1CC[C@]23c4c5ccc(O)c4O[C@H]2[C@@H](O)C=C[C@H]3[C@H]1C5 [morphine, reference compound]
Mice [7]; Mus musculus
  ED50: 0.3 µmol/kg
